{"source": "patent US10175230B2", "about": "“Use of biomarkers for evaluating the effectiveness of active ingredients” (LABORATOIRES EXPANSCIENCE, priority 2013, dated 2019)", "key": {"[1]": {"test_system": "hyaluronic acid", "experiment": "Production of hyaluronic acid by keratinocytes, ELISA of supernatants", "assay_type": "cell-based, human", "conditions": "10^−7 M, 24 hours, positive reference", "method": "Normal human epidermal keratinocytes were incubated in the presence of 0.005% and 0.05% avocado perseose or 10^-7 M retinoic acid (all-trans-retinoic acid; Sigma), positive reference.\nAfter 24 hours of incubation, hyaluronic acid produced by the keratinocytes was assayed in the cultured supernatants with an ELISA (Tebu). The quantity of hyaluronic acid measured was related to the number of living cells estimated by means of a neutral red assay."}, "[2]": {"test_system": "PAD1", "experiment": "Gene expression of peptidylarginine deiminase (PAD1) by RT-PCR", "assay_type": "cell-based, human", "conditions": "10^−7 M, 48 hours, positive reference", "method": "Normal human epidermal keratinocytes, cultured in differentiation-inducing medium (supplemented with Ca++), were incubated for 48 hours in the presence of 0.005% and 0.05% avocado perseose or 10^-7M vitamin D3 (1α,25-dihydroxyvitamin D3; Sigma), positive reference.\nAt the conclusion of the treatment, the RNA were extracted and the gene expression of PAD1 was evaluated by RT-PCR; the reference gene GAPDH was used to normalize the results."}, "[3]": {"test_system": "Ehrlich ascites carcinoma tumor cells", "conditions": "perseitol associated with a potassium ion; Shibuya et al. 1999; cited from earlier work"}}, "note": "Marks after values point to notes of the source that are not given here.", "data": [{"smiles": "CC1=C(/C=C/C(C)=C/C=C/C(C)=C/C(=O)O)C(C)(C)CCC1", "note": "[Retinoic acid, all-trans-retinoic acid]", "values": [{"measurement": "Hyaluronic acid (ng/ml/living cells)", "setting": "[1]", "result": "544.024 ± 34.026", "unit": "ng/ml/living cells"}, {"measurement": "Increase of hyaluronic acid produced versus control cells", "setting": "[1]", "result": "+119% ***"}]}, {"smiles": "C=C1/C(=C\\C=C2/CCC[C@]3(C)[C@@H]([C@H](C)CCCC(C)(C)O)CC[C@@H]23)C[C@@H](O)C[C@@H]1O", "note": "[Vitamin D3, 1α,25-dihydroxyvitamin D3]", "values": [{"measurement": "PAD1 (Relative Quantity normalized by GAPDH)", "setting": "[2]", "result": 2.66}, {"measurement": "Stimulation of PAD1 gene expression versus control cells", "setting": "[2]", "result": "+166% **"}]}, {"smiles": "OCC(O)C(O)C(O)C(O)C(O)CO", "note": "(centres unmarked) [perseitol, Perseitol]", "values": [{"measurement": "Incorporation of 3H-leucine", "setting": "[3]", "result": "inhibits"}]}]}
